Reference: ChEMBL document CHEMBL3112404, “Click chemistry inspired facile synthesis and bioevaluation of novel triazolyl analogs of Ludartin” (Bioorg Med Chem Lett, 2014)

How the values were obtained:
A549 [1] = assay: Cytotoxicity against human A549 cells assessed as growth inhibition at 50 uM by colorimetric sulphorhodamine B assay; assay type: functional; conditions: read-out: GI
HCT-116 [2] = assay: Cytotoxicity against human HCT116 cells assessed as growth inhibition at 50 uM by colorimetric sulphorhodamine B assay; assay type: functional; conditions: read-out: GI
T98G [3] = assay: Cytotoxicity against human T98G cells assessed as growth inhibition at 50 uM by colorimetric sulphorhodamine B assay; assay type: functional; conditions: read-out: GI
PC-3 [4] = assay: Cytotoxicity against human PC3 cells assessed as growth inhibition at 50 uM by colorimetric sulphorhodamine B assay; assay type: functional; conditions: read-out: GI
MCF7 [5] = assay: Cytotoxicity against human MCF7 cells assessed as growth inhibition at 50 uM by colorimetric sulphorhodamine B assay; assay type: functional; conditions: read-out: GI
T98G [6] = assay: Cytotoxicity against human T98G cells assessed as growth inhibition by colorimetric sulphorhodamine B assay; assay type: functional, cell-based
A549 [7] = assay: Cytotoxicity against human A549 cells assessed as growth inhibition by colorimetric sulphorhodamine B assay; assay type: functional, cell-based
HCT-116 [8] = assay: Cytotoxicity against human HCT116 cells assessed as growth inhibition by colorimetric sulphorhodamine B assay; assay type: functional, cell-based
MCF7 [9] = assay: Cytotoxicity against human MCF7 cells assessed as growth inhibition by colorimetric sulphorhodamine B assay; assay type: functional, cell-based
PC-3 [10] = assay: Cytotoxicity against human PC3 cells assessed as growth inhibition by colorimetric sulphorhodamine B assay; assay type: functional, cell-based

SMILES	inhibition of growth at 50 µM (A549 [1]) [%]	inhibition of growth at 50 µM (HCT-116 [2]) [%]	inhibition of growth at 50 µM (T98G [3]) [%]	inhibition of growth at 50 µM (PC-3 [4]) [%]	inhibition of growth at 50 µM (MCF7 [5]) [%]	IC50 (T98G [6]) [µM]	IC50 (A549 [7]) [µM]	IC50 (HCT-116 [8]) [µM]	IC50 (MCF7 [9]) [µM]	IC50 (PC-3 [10]) [µM]
COc1ccc(-n2cc(CNC[C@@H]3C(=O)O[C@H]4[C@H]3CCC(C)=C3C[C@H]5O[C@@]5(C)[C@@H]34)nn2)cc1	20	0	0	0	0					
CC1=C2C[C@H]3O[C@@]3(C)[C@@H]2[C@H]2OC(=O)[C@@H](CNCc3cn(-c4ccccc4[N+](=O)[O-])nn3)[C@@H]2CC1	17	0	0	0	0					
CC1=C2C[C@H]3O[C@@]3(C)[C@@H]2[C@H]2OC(=O)[C@@H](CNCc3cn(-c4cccc([N+](=O)[O-])c4)nn3)[C@@H]2CC1	0	0	0	0	0					
CC1=C2C[C@H]3O[C@@]3(C)[C@@H]2[C@H]2OC(=O)[C@@H](CNCc3cn(-c4ccc([N+](=O)[O-])cc4)nn3)[C@@H]2CC1	26	0	0	0	0					
CC1=C2C[C@H]3O[C@@]3(C)[C@@H]2[C@H]2OC(=O)[C@@H](CNCc3cn(-c4ccccc4C#N)nn3)[C@@H]2CC1	46	20	42	22	12					
CC1=C2C[C@H]3O[C@@]3(C)[C@@H]2[C@H]2OC(=O)[C@@H](CNCc3cn(-c4cccc(C#N)c4)nn3)[C@@H]2CC1	10	0	0	0	0					
CC1=C2C[C@H]3O[C@@]3(C)[C@@H]2[C@H]2OC(=O)[C@@H](CNCc3cn(-c4ccc(C#N)cc4)nn3)[C@@H]2CC1	0	0	0	0	0					
CC1=C2C[C@H]3O[C@@]3(C)[C@@H]2[C@H]2OC(=O)[C@@H](CNCc3cn(-c4ccc(F)cc4F)nn3)[C@@H]2CC1	19	0	12	21	29					
CC1=C2C[C@H]3O[C@@]3(C)[C@@H]2[C@H]2OC(=O)[C@@H](CNCc3cn(-c4cccc(CO)c4)nn3)[C@@H]2CC1	47	11	0	0	13					
CC1=C2C[C@H]3O[C@@]3(C)[C@@H]2[C@H]2OC(=O)[C@@H](CNCc3cn(-c4ccc(C)c(C)c4)nn3)[C@@H]2CC1	73	49	99	46	84	12	11	39	8.5	38
CC1=C2C[C@H]3O[C@@]3(C)[C@@H]2[C@H]2OC(=O)[C@@H](CNCc3cn(-c4cc(Cl)c(Cl)cc4Cl)nn3)[C@@H]2CC1	91	74	77	73	81	17	21	18	12	11
CC1=C2C[C@H]3O[C@@]3(C)[C@@H]2[C@H]2OC(=O)[C@@H](CNCc3cn(-c4ccccc4)nn3)[C@@H]2CC1	77	58	73	56	77	21	24	37	21	54
CC1=C2C[C@H]3O[C@@]3(C)[C@@H]2[C@H]2OC(=O)[C@@H](CNCc3cn(-c4cccc5ccccc45)nn3)[C@@H]2CC1	21	48	32	8	0					
CC1=C2C[C@H]3O[C@@]3(C)[C@@H]2[C@H]2OC(=O)[C@@H](CNCc3cn(-c4ccccc4Cl)nn3)[C@@H]2CC1	32	6	37	28	12					
CC1=C2C[C@H]3O[C@@]3(C)[C@@H]2[C@H]2OC(=O)[C@@H](CNCc3cn(-c4ccccc4Br)nn3)[C@@H]2CC1	68	79	17	0	22		24	26		
CC1=C2C[C@H]3O[C@@]3(C)[C@@H]2[C@H]2OC(=O)[C@@H](CNCc3cn(-c4ccc(Br)cc4)nn3)[C@@H]2CC1	74	72	58	28	79	52	39	35	32	
COc1ccccc1-n1cc(CNC[C@@H]2C(=O)O[C@H]3[C@H]2CCC(C)=C2C[C@H]4O[C@@]4(C)[C@@H]23)nn1	21	38	34	40	0					
COc1cccc(-n2cc(CNC[C@@H]3C(=O)O[C@H]4[C@H]3CCC(C)=C3C[C@H]5O[C@@]5(C)[C@@H]34)nn2)c1	8	0	0	0	6					
C=C1C(=O)O[C@H]2[C@H]1CCC(C)=C1C[C@H]3O[C@@]3(C)[C@@H]12 [LUDARTIN]	97	97	97	97	100	6.3			0.5	
